Reference: ChEMBL document CHEMBL1201862, “PubChem BioAssay data set” (2004)
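Values below derive from 48-hour exposures of cells grown in 96-well plates, with endpoints linearly interpolated between the two concentrations bracketing the appropriate inhibition level. At the GI50, growth is halved.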 Calls of active or inactive are those of the source. No stated cut-off is given here; in the data, active = GI50 up to about 1.1 µM and inactive = higher.

Assays:
Test in all cases: growth of human tumour cells (NCI), 48 h
SK-MEL-28 = system: SK-MEL-28
MOLT-4 = system: MOLT-4
M14 = system: M14
HT-29 = system: HT-29
SNB-75 = system: SNB-75
OVCAR-5 = system: OVCAR-5
NCI-H23 = system: NCI-H23
KM12 = system: KM12
SF-539 = system: SF-539
ACHN = system: ACHN
SR = system: SR
HL-60 = system: HL-60
HCT-116 = system: HCT-116
UACC-257 = system: UACC-257
LOX IMVI = system: LOX IMVI
M19-MEL = system: M19-MEL
U-251 = system: U-251
RPMI-8226 = system: RPMI-8226
SW-620 = system: SW-620
NCI-H522 = system: NCI-H522
IGROV-1 = system: IGROV-1
K562 = system: K562
TK-10 = system: TK-10
LXFL 529 = system: LXFL 529
DLD-1 = system: DLD-1
NCI-H226 = system: NCI-H226
OVCAR-8 = system: OVCAR-8
OVCAR-3 = system: OVCAR-3
UO-31 = system: UO-31
COLO 205 = system: COLO 205
A549 = system: A549
UACC-62 = system: UACC-62
OVCAR-4 = system: OVCAR-4
HOP-92 = system: HOP-92
HOP-62 = system: HOP-62
NCI-H460 = system: NCI-H460
SF-268 = system: SF-268
SNB-78 = system: SNB-78
SK-OV-3 = system: SK-OV-3
786-0 = system: 786-0
SF-295 = system: SF-295
SNB-19 = system: SNB-19
KM-20L2 = system: KM-20L2
RXF 393 = system: RXF 393
HCT-15 = system: HCT-15
DMS-114 = system: DMS-114
HOP-18 = system: HOP-18
A498 = system: A498
SK-MEL-2 = system: SK-MEL-2
SK-MEL-5 = system: SK-MEL-5
CCRF-CEM = system: CCRF-CEM
CAKI-1 = system: CAKI-1
DMS-273 = system: DMS-273
HCC 2998 = system: HCC 2998
Malme-3M = system: Malme-3M
EKVX = system: EKVX
SN12C = system: SN12C

`Sc1nnc(-c2ccccc2)n1/N=C\c1ccc(-c2ccc(Cl)cc2)o1` was tested, and the GI50 (SK-MEL-28) was > 100 µM (inactive), the GI50 (MOLT-4) was > 100 µM (inactive) and the GI50 (M14) was > 100 µM (inactive). For the same molecule, the GI50 (HT-29) was > 100 µM (inactive), the GI50 (SNB-75) was > 100 µM (inactive) and the GI50 (OVCAR-5) was > 100 µM (inactive). The GI50 (NCI-H23) was > 100 µM (inactive), the GI50 (KM12) was > 100 µM (inactive) and the GI50 (SF-539) was > 100 µM (inactive). For the same molecule, the GI50 (ACHN) was > 100 µM (inactive), the GI50 (SR) was > 100 µM (inactive) and the GI50 (HL-60) was > 100 µM (inactive). The GI50 (HCT-116) was > 100 µM (inactive), the GI50 (UACC-257) was > 100 µM (inactive) and the GI50 (LOX IMVI) was > 100 µM (inactive). For the same molecule, the GI50 (M19-MEL) was > 100 µM (inactive), the GI50 (U-251) was > 100 µM (inactive) and the GI50 (RPMI-8226) was > 100 µM (inactive). For the same molecule, the GI50 (SW-620) was > 100 µM (inactive), the GI50 (NCI-H522) was > 100 µM (inactive) and the GI50 (IGROV-1) was > 100 µM (inactive). The GI50 (K562) was > 100 µM (inactive), the GI50 (TK-10) was > 100 µM (inactive) and the GI50 (LXFL 529) was > 100 µM (inactive). For the same molecule, the GI50 (DLD-1) was > 100 µM (inactive), the GI50 (NCI-H226) was > 100 µM (inactive) and the GI50 (OVCAR-8) was > 100 µM (inactive). The GI50 (OVCAR-3) was > 100 µM (inactive), the GI50 (UO-31) was > 100 µM (inactive) and the GI50 (COLO 205) was > 100 µM (inactive). The GI50 (A549) was > 100 µM (inactive), the GI50 (UACC-62) was > 100 µM (inactive) and the GI50 (OVCAR-4) was > 100 µM (inactive). For the same molecule, the GI50 (HOP-92) was > 100 µM (inactive), the GI50 (HOP-62) was > 100 µM (inactive) and the GI50 (NCI-H460) was > 100 µM (inactive). The GI50 (SF-268) was > 100 µM (inactive), the GI50 (SNB-78) was > 100 µM (inactive) and the GI50 (SK-OV-3) was > 100 µM (inactive). For the same molecule, the GI50 (786-0) was > 100 µM (inactive), the GI50 (SF-295) was > 100 µM (inactive) and the GI50 (SNB-19) was > 100 µM (inactive). For the same molecule, the GI50 (KM-20L2) was > 100 µM (inactive).
For `CC1(C)OC2COC3(CNO)OC(C)(C)OC3C2O1` (stereo not given), the GI50 (SK-MEL-28) was > 100 µM (inactive), the GI50 (MOLT-4) was > 100 µM (inactive) and the GI50 (M14) was > 100 µM (inactive). For the same molecule, the GI50 (HT-29) was > 100 µM (inactive), the GI50 (SNB-75) was > 100 µM (inactive) and the GI50 (OVCAR-5) was > 100 µM (inactive). The GI50 (RXF 393) was > 100 µM (inactive), the GI50 (NCI-H23) was > 100 µM (inactive) and the GI50 (KM12) was > 100 µM (inactive). For the same molecule, the GI50 (SF-539) was > 100 µM (inactive), the GI50 (ACHN) was > 100 µM (inactive) and the GI50 (HL-60) was 16.6 µM (inactive). For the same molecule, the GI50 (HCT-15) was over 100 µM, the GI50 (HCT-116) was > 100 µM (inactive) and the GI50 (UACC-257) was > 100 µM (inactive). For the same molecule, the GI50 (LOX IMVI) was > 100 µM (inactive), the GI50 (DMS-114) was > 100 µM (inactive) and the GI50 (M19-MEL) was > 100 µM (inactive). For the same molecule, the GI50 (HOP-18) was > 100 µM (inactive), the GI50 (A498) was > 100 µM (inactive) and the GI50 (SK-MEL-2) was > 100 µM (inactive). For the same molecule, the GI50 (U-251) was > 100 µM (inactive), the GI50 (SW-620) was > 100 µM (inactive) and the GI50 (SK-MEL-5) was > 100 µM (inactive). For the same molecule, the GI50 (IGROV-1) was > 100 µM (inactive), the GI50 (K562) was > 100 µM (inactive) and the GI50 (TK-10) was > 100 µM (inactive). The GI50 (DLD-1) was > 100 µM (inactive), the GI50 (CCRF-CEM) was > 100 µM (inactive) and the GI50 (CAKI-1) was > 100 µM (inactive). The GI50 (NCI-H226) was > 100 µM (inactive), the GI50 (DMS-273) was > 100 µM (inactive) and the GI50 (OVCAR-8) was > 100 µM (inactive). For the same molecule, the GI50 (HCC 2998) was > 100 µM (inactive), the GI50 (Malme-3M) was > 100 µM (inactive) and the GI50 (OVCAR-3) was > 100 µM (inactive). The GI50 (UO-31) was > 100 µM (inactive), the GI50 (COLO 205) was > 100 µM (inactive) and the GI50 (A549) was > 100 µM (inactive). The GI50 (UACC-62) was > 100 µM (inactive), the GI50 (OVCAR-4) was > 100 µM (inactive) and the GI50 (HOP-92) was 65.8 µM (inactive). For the same molecule, the GI50 (HOP-62) was > 100 µM (inactive), the GI50 (NCI-H460) was > 100 µM (inactive) and the GI50 (SF-268) was > 100 µM (inactive). For the same molecule, the GI50 (SNB-78) was > 100 µM (inactive), the GI50 (SK-OV-3) was > 100 µM (inactive) and the GI50 (786-0) was > 100 µM (inactive). For the same molecule, the GI50 (EKVX) was > 100 µM (inactive), the GI50 (SF-295) was > 100 µM (inactive) and the GI50 (SNB-19) was > 100 µM (inactive). The GI50 (SN12C) was > 100 µM (inactive).
